Source: patent US10463618B2, “Nanoemulsions” (The University of Liverpool, priority 2015, dated 2019)

Legend:
[1] = Solubility of drug in castor oil; type: physicochemical
Experimental: Non-limiting examples of some suitable drugs include for example the antiretroviral drugs Lopinavir (LPV) and Efavirenz (EFV), and the antibiotics Rifampicin and Erythromycin. Practically, approximately 50 mg/ml Efavirenz or 25 mg/ml Lopinavir can be dissolved in castor oil. Stock solutions of drug dissolved in castor oil were produced (50 mg/ml of Efavirenz in castor oil, or 25 mg/ml of Lopinavir in the same oil).

extrinsic pathway = experiment: Plasma coagulation: prothrombin time (PT); set-up: species or system Human; conditions: 37° C., 30 minutes, 0.16-40 μg/mL
Experimental: (§1) The impact of nanoemulsion formulations on plasma coagulation was also assessed. Human blood from three donors was collected by venepuncture into tubes anti-coagulated with sodium citrate; blood was used within one hour of collection. Test plasma was prepared by centrifuging blood at 2500×g, at 21° C., for 10 minutes with the resultant plasma collected and pooled. Pooled plasma was stable at room temperature for 8 hours. Nanoemulsion samples were prepared at 10× the required final concentration to accommodate dilution when added to test plasma. Concentrations and subsequent dilutions were based on the concentration of Efavirenz contained within the samples with dilutions of blank nanoemulsion diluted in the same fashion. Final concentrations tested were 40 μg/mL, 4 μg/mL, 0.8 μg/mL and 0.16 μg/mL. […]
(§2) Cuvettes were placed into A, B, C and D test rows on the coagulometer and one metal ball added into each cuvette (warmed for at least 3 minutes prior to use). […] Once incubation time was complete coagulation reagent was added to each cuvette and coagulation time recorded. Percentage coefficient of variation was calculated for each control and test samples according to the following formula: % CV=SD/Mean×100%. […] Data was expressed as a percentage of the coagulation time recorded for plasma with no nanomaterial present (plasma only control).

final common pathway = experiment: Plasma coagulation: thrombin time (TT); set-up: species or system Human; conditions: 37° C., 30 minutes, 0.16-40 μg/mL
Experimental: as §1, §2

intrinsic pathway = experiment: Plasma coagulation: activated partial thromboplastin time (APTT); set-up: species or system Human
Experimental: as §1, §2

[2] = Transcellular permeation assay (Caco-2 transwell); type: in vitro ADME; conditions: human
Experimental: (§3) Caco-2 cells were seeded at a density of 35,000 cells per well in the apical chamber of a 24 well Corning® HTS® transwell plate, and left to adhere for 24 hours. After this time, culture media was replenished by removal with an aspirator, also removing those cells that had not adhered. Culture media used was DMEM supplemented with 15% fetal bovine serum, which was continually replenished every other day for a three-week period.
(§4) In different wells the apical or basolateral chambers (donor chambers) were loaded with drug or nanoemulsion containing media, with the opposite chambers (acceptor chambers) of those wells being filled with fresh drug-free media. Samples were taken from both apical and basolateral chambers from all wells at 1, 2, and 24 hour time periods. Samples were then immediately frozen at −40° C. for subsequent batch analysis via high performance liquid chromatography to determine the concentration of the drug in the sample.
(§5) The apparent permeability (Papp) was calculated using the following equation: Papp=((A/T)*(V))/(S*0.3).
(§6) Where A is the concentration in the sample, T is the time in seconds at which the sample was collected, V is the total volume of sample contained in the chamber being sampled, S is the initial starting concentration of the drug and 0.3 is the surface area in cm^2 of the transwell insert on which the Caco-2 cells are grown.

Caco-2 cells = experiment: Transcellular permeation assay (Caco-2 transwell); type: in vitro ADME; conditions: 10 μM
Experimental: as §3, §4, §5, §6

[3] = Caco-2, 2 hours, read-out: Papp apical to basolateral

| amount that can be dissolved in castor oil [1] | Papp A→B at 2 h, 10 μM [2, 3] [×10⁻⁶ cm/s] | Papp A→B at 24 h, 10 μM ([2]; Caco-2, 24 hours, read-out: Papp apical to basolateral) [×10⁻⁶ cm/s] | Papp basolateral to apical (Caco-2 cells; 1 hour) | Papp basolateral to apical (Caco-2 cells; 2 hours) | Papp A→B at 1 h, 10 μM ([2]; Caco-2, 1 hour, read-out: Papp apical to basolateral) [×10⁻⁶ cm/s] | Papp B→A at 1 h, 10 μM ([2]; Caco-2, 1 hour, read-out: Papp basolateral to apical) [×10⁻⁶ cm/s] | Papp B→A at 2 h, 10 μM ([2]; Caco-2, 2 hours, read-out: Papp basolateral to apical) [×10⁻⁶ cm/s] | SMILES | impact on prothrombin time (PT) (extrinsic pathway) | impact on thrombin time (TT) (final common pathway) | impact on APTT coagulation time (intrinsic pathway) |
| --- | --- | --- | --- | --- | --- | --- | --- | --- | --- | --- | --- |
| approximately 50 mg/ml | 8.2 | 0.7 | increased compared to EFV nanoemulsion | increased compared to EFV nanoemulsion | – | – | – | O=C1Nc2ccc(Cl)cc2[C@@](C#CC2CC2)(C(F)(F)F)O1 [Efavirenz] | No impact | No impact | did not impact on coagulation time at all |
| ~25 mg/mL | 2.7 | – | – | – | 8.4 | 9.3 | 13 | Cc1cccc(C)c1OCC(=O)N[C@@H](Cc1ccccc1)[C@@H](O)C[C@H](Cc1ccccc1)NC(=O)[C@H](C(C)C)N1CCCNC1=O [Lopinavir] | – | – | – |
